pIC50, pKd: −log10 of the molar value. Read-outs that look alike come from different tables or passages of the source.
Tests used:
[1] = tested on: GBM-F; assay: cell killing, GBM-F patient-derived GBM CSC line; type: cell-based, human; conditions: for pIC50: read-out: GBM-F IC50
[2] = tested on: GBM-A; assay: cell killing, GBM-A patient-derived GBM CSC line; type: cell-based, human; conditions: for pIC50: read-out: GBM-A IC50
[3] = tested on: primary human astrocytes (HA); assay: cytotoxicity in control primary human astrocytes; type: cell-based; conditions: for pIC50: read-out: HA IC50
[4] = two-week mouse tolerability study; type: in vivo; conditions: oral, 1.0 and 5.0 mg/kg B.I.D., two weeks, naïve animals
[5] = tested on: primary human lung fibroblasts (HLF); assay: cytotoxicity in control primary human lung fibroblasts; type: cell-based; conditions: read-out: HLF IC50
[6] = tested on: U118MG; assay: cytotoxicity in hypo-MGMT methylated cell line; type: cell-based; conditions: read-out: U118MG IC50
[7] = tested on: U87-EGFRvIII cells; assay: Cell-titer glo cell viability in U87-EGFRvIII cells after shRNA knockdown; type: cell-based; conditions: for cell viability on loss of RIPK2 / sensitivity following shRNA-mediated RIPK1 knockdown: U87-EGFRvIII; for cell viability on loss of RIPK2: RIPK2 shRNA vs control, YM155 20 nM, aYM155 160 nM; for sensitivity following shRNA-mediated RIPK1 knockdown: induced tumor cell death; for pIC50: read-out: 24-hour IC50 value
[8] = tested on: survivin mRNA; type: in vivo, athymic nude mice; conditions: 1 hour after last dose of 9-day regimen
[9] = brain tissue distribution pharmacokinetic study; conditions: 10 mg/kg, P.O., CD-1 mice
[10] = tested on: HT-1080 cells; assay: Cell-titer glo cell viability in HT-1080 cells after shRNA RIPK2 knockdown; type: cell-based; conditions: HT-1080, RIPK2 shRNA vs control, 24 hours; YM155 4 nM, aYM155 40 nM
[11] = tested on: WA09 human ES cell-derived neural progenitor cells (NPC); assay: cytotoxicity in control neural progenitor cells; type: cell-based; conditions: for pIC50: read-out: NPC IC50
[12] = tested on: U87EGFRvIII intracranial xenografts; assay: orthotopic intracranial GBM xenograft, tumor growth by FMT; type: in vivo, athymic nude mice; conditions: oral, 5mg/kg and 15 mg/kg, B.I.D.
[13] = tested on: control neural cell types; assay: cytotoxicity in control neural cell types; type: cell-based, human; conditions: read-out: IC50 in control neural cell types
[14] = tested on: LN229; assay: cytotoxicity in hyper-MGMT methylated cell line; type: cell-based
[15] = target: hERG channel (Homo sapiens, UniProt Q12809); assay: hERG channel inhibition assay; type: biochemical; conditions: at 3 μM, highest tested concentration
Chain of hERG channel (Q12809 whole entry): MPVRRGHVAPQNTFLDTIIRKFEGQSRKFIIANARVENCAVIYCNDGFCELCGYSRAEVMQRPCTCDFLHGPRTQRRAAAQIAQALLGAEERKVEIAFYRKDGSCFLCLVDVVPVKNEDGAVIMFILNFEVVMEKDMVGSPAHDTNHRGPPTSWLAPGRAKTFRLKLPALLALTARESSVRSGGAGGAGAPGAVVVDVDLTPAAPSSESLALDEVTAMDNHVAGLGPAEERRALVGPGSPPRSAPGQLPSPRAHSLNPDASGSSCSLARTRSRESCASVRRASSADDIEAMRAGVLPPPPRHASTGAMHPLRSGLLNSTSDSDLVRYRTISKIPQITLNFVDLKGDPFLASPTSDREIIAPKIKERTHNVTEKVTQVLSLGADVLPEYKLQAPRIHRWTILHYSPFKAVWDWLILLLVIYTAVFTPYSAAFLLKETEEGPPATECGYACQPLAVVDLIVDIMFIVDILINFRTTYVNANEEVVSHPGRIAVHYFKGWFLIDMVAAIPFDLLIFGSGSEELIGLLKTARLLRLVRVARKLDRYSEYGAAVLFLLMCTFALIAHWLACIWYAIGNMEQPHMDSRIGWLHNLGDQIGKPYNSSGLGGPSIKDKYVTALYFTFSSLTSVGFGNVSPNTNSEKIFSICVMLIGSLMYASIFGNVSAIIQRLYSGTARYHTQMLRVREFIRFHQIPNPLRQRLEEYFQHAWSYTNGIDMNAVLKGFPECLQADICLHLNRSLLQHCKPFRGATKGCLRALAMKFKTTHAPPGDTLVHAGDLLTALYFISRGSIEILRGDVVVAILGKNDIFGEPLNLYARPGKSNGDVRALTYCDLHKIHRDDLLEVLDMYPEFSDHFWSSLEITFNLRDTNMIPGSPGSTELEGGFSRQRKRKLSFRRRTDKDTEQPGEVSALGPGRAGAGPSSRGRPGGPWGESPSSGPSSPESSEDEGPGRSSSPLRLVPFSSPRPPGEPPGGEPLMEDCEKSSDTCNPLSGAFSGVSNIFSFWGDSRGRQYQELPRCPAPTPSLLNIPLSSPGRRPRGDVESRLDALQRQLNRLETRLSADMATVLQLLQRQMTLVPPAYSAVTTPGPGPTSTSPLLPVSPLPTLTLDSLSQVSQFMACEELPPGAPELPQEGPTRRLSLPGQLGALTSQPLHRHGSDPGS

[16] = tested on: Casp-3/7; assay: Caspase-Glo 3/7 assay in HT-1080 cells; type: cell-based; conditions: for Casp3/7 activation on SLC35F2 shRNA knockdown: HT-1080; for Casp-3/7 activation in RIPK2 shRNA knockdown cells vs non-targeting control: HT-1080, 8 hours; for Casp-3/7 activation: HT-1080, 8 hours of treatment
[17] = tested on: GBM CSCs and non-diseased cells; assay: MS-based metabolite identification of aYM155 activation in cells; type: cell-based, human; conditions: 100 nM, 24 hours
[18] = target: T1, recombinant human full-length RIPK2 (Homo sapiens, UniProt O43353); conditions: read-out: apparent Kd for RIPK2; cited from earlier work
T1 sequence (O43353 whole entry): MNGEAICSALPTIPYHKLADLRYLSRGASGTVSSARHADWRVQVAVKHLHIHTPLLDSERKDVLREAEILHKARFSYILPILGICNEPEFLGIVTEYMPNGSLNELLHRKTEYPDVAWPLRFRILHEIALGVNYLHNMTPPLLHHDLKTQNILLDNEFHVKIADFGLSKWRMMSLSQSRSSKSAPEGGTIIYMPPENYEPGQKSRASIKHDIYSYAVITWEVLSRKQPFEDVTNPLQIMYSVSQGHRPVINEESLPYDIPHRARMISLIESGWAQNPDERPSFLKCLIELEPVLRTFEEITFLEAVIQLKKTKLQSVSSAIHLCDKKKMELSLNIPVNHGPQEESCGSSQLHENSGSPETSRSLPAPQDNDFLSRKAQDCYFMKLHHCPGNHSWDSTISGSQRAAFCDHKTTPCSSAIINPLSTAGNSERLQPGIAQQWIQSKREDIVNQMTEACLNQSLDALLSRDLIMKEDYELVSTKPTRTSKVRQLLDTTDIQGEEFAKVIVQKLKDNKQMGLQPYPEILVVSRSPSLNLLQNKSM

[19] = tested on: HT-1080 fibrosarcoma cells; assay: cytotoxicity in HT-1080 fibrosarcoma cells; type: cell-based; conditions: Homo sapiens, HT-1080, read-out: HT-1080 IC50
[20] = tested on: Survivin; assay: Western blot of survivin in HT-1080 cells after shRNA RIPK2 knockdown; type: cell-based; conditions: 24 hours
[21] = target: T1, recombinant human full-length RIPK2; assay: in vitro competitive binding, UV-dependent labeling of RIPK2 by cRIPGBM-PAP
[22] = tested on: Casp-1; assay: Casp-1 activation in cells; type: cell-based; conditions: HT-1080, EGFRvIII amplified U87MG cells and GBM CSCs
[23] = tested on: IκBα phosphorylation; assay: IκBα phosphorylation after NOD2 stimulation with L-18 MDP; type: cell-based; conditions: U87EGFRvIII cells, pretreatment 100nM, L-18 MDP stimulation
[24] = tested on: Survivin; assay: Western blot of survivin in U87-EGFRvIII cells after shRNA RIPK2 knockdown; type: cell-based; conditions: U87MG stably expressing EGFRvIII, 100 nM, 24 hours

SMILES: Cc1n(Cc2ccc(F)cc2)c2c([n+]1Cc1ccccc1)C(=O)c1ccccc1C2=O [cRIPGBM]
- pIC50 ([1]; cell killing): 7.15
- pIC50 ([2]; cell killing, 72 hours): 7.57

SMILES: COCCN(C(C)=O)C1=C(NCc2cnccn2)C(=O)c2ccccc2C1=O [aYM155]
- fold less potent compared to YM155 ([3]; HA): 12 fold
- pIC50 ([3]; control cell type, 72 hours): 7.21
- tolerability (weight loss and behavioral observations) [4]: well tolerated
- pIC50 ([5]; control cell type): 5.70
- pIC50 ([6]; hypo-MGMT methylated): 7.96
- cell viability on loss of RIPK2 ([7]; 24 hours): significant rescue of cell viability
- sensitivity following shRNA-mediated RIPK1 knockdown [7]: No significant differences in sensitivity
- pIC50 ([7]; U87-EGFRvIII cells, 24 hours): 6.80
- potency compared to YM155 ([1]; GBM-F): ~ equivalent
- pIC50 ([1]; cell killing, 72 hours): 9.19
- fold less potent compared to YM155 ([2]; GBM-A): 2.2 fold
- pIC50 ([2]; cell killing, 72 hours): 8.00
- survivin expression levels in human tumor tissue ([8]; 5 and 15 mg/kg B.I.D.): significantly decrease survivin expression levels
- survivin expression in normal brain tissue [8]: no effect
- brain Cmax [9]: 32 nM
- brain/plasma concentration ratio [9]: 0.56
- cell viability on loss of RIPK2 [10]: significant rescue of cell viability
- fold less potent compared to YM155 ([11]; NPC): 19 fold
- pIC50 ([11]; control cell type, 72 hours): 7.01
- tumor growth by FMT imaging [12]: significant inhibition of tumor growth
- pIC50 ([13]; HA and NPC): 7.01 to 7.21
- pIC50 ([14]; read-out: LN229 IC50, hyper-MGMT methylated): 7.92
- hERG channel inhibition [15]: < 20%
- Casp3/7 activation on SLC35F2 shRNA knockdown [16]: ablated
- Casp-3/7 activation in RIPK2 shRNA knockdown cells vs non-targeting control [16]: significantly reduced
- Casp-3/7 activation [16]: Casp-3/7 activation was observed
- rates of conversion to YM155 in GBM CSC populations compared to non-transformed control cell types [17]: significantly higher

SMILES: Cc1n(Cc2ccc(N=[N+]=[N-])cc2)c2c([n+]1CCOCCOCCNC(=O)CCCC[C@@H]1SC[C@@H]3NC(=O)N[C@@H]31)C(=O)c1ccccc1C2=O [cRIPGBM-PAP]
- pKd [18]: 5.64

SMILES: CC(=O)N(Cc1ccc(F)cc1)C1=C(NCc2ccccc2)C(=O)c2ccccc2C1=O [RIPGBM]
- pIC50 ([1]; cell killing): 6.40
- pIC50 ([2]; cell killing, 72 hours): 6.70

SMILES: COCCn1c2c([n+](Cc3cnccn3)c1C)C(=O)c1ccccc1C2=O [YM155, sepantronium bromide]
- pIC50 [19]: 8.51
- concentration required to significantly impact survivin protein levels ([20]; HT-1080 RIPK2 shRNA cells): 100 nM
- concentration giving significant reduction of survivin protein levels ([20]; HT-1080 non-targeting shRNA control cells): 10 nM
- pIC50 ([3]; Homo sapiens, Astrocyte, 72 h): 8.29
- pIC50 ([5]; Homo sapiens, Fibroblast): 7.04
- potency of inhibition of cRIPGBM-PAP RIPK2 labeling relative to cRIPGBM [21]: ~ 10 fold
- inhibition of UV-dependent covalent labeling of RIPK2 by cRIPGBM-PAP ([21]; cRIPGBM-PAP 1 μM, at concentrations as low as 30nM): at least 50%
- pIC50 ([6]; Homo sapiens, U-118-MG): 8.43
- pIC50 ([7]; 24 h): 7.70
- cell viability on loss of RIPK2 ([7]; 24 hours): significant rescue of cell viability
- sensitivity following shRNA-mediated RIPK1 knockdown [7]: No significant differences in sensitivity
- Casp-1 activation [22]: time dependent activation of Casp-1
- pIC50 ([1]; Homo sapiens, 72 h): 9.11
- pIC50 ([2]; Homo sapiens, 72 h): 8.35
- brain exposure [9]: no brain exposure above limits of quantification
- cell viability on loss of RIPK2 [10]: significant rescue of cell viability
- IKK activation (IκBα phosphorylation) [23]: reduced IKK activation
- pIC50 ([11]; Homo sapiens, 72 h): 8.30
- survivin expression on RIPK2 knockdown [24]: significant rescue of survivin expression
- pIC50 ([13]; Homo sapiens): 8.30
- pIC50 ([14]; Homo sapiens, LN-229, read-out: LN229 IC50): 8.55
- Casp3/7 activation on SLC35F2 shRNA knockdown [16]: ablated
- Casp-3/7 activation in RIPK2 shRNA knockdown cells vs non-targeting control [16]: significantly reduced
- Casp-3/7 activation [16]: Casp-3/7 activation was observed

Source: paper PMC10551045 (Journal of the American Chemical Society, 2023)
